Starred links: 1 amine or outer side, 2 acyl side, 3 side chain; linkers in the order of their positions; H or OH if unused. Positions of bridges follow the written chain, without caps; N, C: chain ends. Non-standard residues stand in square brackets, D forms with d. Residues, ends and D or L forms follow the SMILES beside them. X2 = COC(=O)CCCCCCCCCCCCCCCCC(=O)N[C@@H](CCC(=O)NCCOCCOCCOCCOCCOCCOCCOCCOCCOCCOCCOCCn1cc(C[C@H](NC(=N)CNC(=O)[C@H](CSCC(=O)[*:1])NC(=N)[C@H](CC(C)C)N[*:2])C(=O)OC)nn1)C(=O)OC; Ala(1-CH2COOH-inden-3-yl) = N[C@@H](CC1=CC(CC(=O)O)c2ccccc21)C(=O)O; Hyp = O=C(O)[C@@H]1C[C@@H](O)CN1; NMeNle = CCCC[C@H](NC)C(=O)O; NMeA = CN[C@@H](C)C(=O)O; Dab = NCC[C@H](N)C(=O)O; Dap = NC[C@H](N)C(=O)O
Target: T1, PD-1/PD-L1 (Homo sapiens, UniProt Q9NZQ7)
T1 construct: TVMV protease site linker (C); made in house; host or cells: HEK293T cells
Assay: PD-1/PD-L1 Homogenous Time-Resolved Fluorescence (HTRF) binding assay
Conditions: PD-L1-His (10 nM) pre-incubated with inhibitor 15 m, then PD-1-Ig (20 nM)
Description: Methods for Testing the Ability of Macrocyclic Peptides to Compete for the Binding of PD-1 to PD-L1 Using Homogenous Time-Resolved Fluorescence (HTRF) Binding Assays
The ability of the compounds of formula (I) to bind to PD-L1 was investigated using a PD-1/PD-L1 Homogenous Time-Resolved Fluorescence (HTRF) binding assay.
Homogenous Time-Resolved Fluorescence (HTRF) Binding Assay
The interaction of PD-1 and PD-L1 can be assessed using soluble, purified preparations of the extracellular domains of the two proteins. The PD-1 and PD-L1 protein extracellular domains were expressed as fusion proteins with detection tags, for PD-1, the tag was the Fc portion of Immunoglobulin (PD-1-Ig) and for PD-L1 it was the 6 histidine motif (PD-L1-His). All binding studies were performed in an HTRF assay buffer consisting of dPBS supplemented with 0.1% […] bovine serum albumin and 0.05% (v/v) Tween-20. […] HTRF detection was achieved using europium crypate-labeled anti-Ig (1 nM final) and allophycocyanin (APC) labeled anti-His (20 nM final). Antibodies were diluted in HTRF detection buffer and 5 μl was dispensed on top of the binding reaction. The reaction mixture was allowed to equilibrate for 30 minutes and the resulting signal (665 nm/620 nm ratio) was obtained using an EnVision fluorometer. Additional binding assays were established between the human proteins PD-1-Ig/PD-L2-His (20 & 5 nM, respectively) and CD80-His/PD-L1-Ig (100 & 10 nM, respectively).
Recombinant Proteins: Human PD-1 (25-167) with a C-terminal human Fc domain of immunoglobulin G (Ig) epitope tag [hPD-1 (25-167)-3S-IG] and human PD-L1 (18-239) with a C-terminal His epitope tag [hPD-L1(18-239)-TVMV-His] were expressed in HEK293T cells and purified sequentially by ProteinA affinity chromatography and size exclusion chromatography. Human PD-L2-His and CD80-His was obtained through commercial sources.
Table 1 lists the IC50 values for representative examples of this disclosure measured in the PD-1/PD-L1 Homogenous Time-Resolved Fluorescence (HTRF) binding assay.

T1 sequence (Q9NZQ7 18-239): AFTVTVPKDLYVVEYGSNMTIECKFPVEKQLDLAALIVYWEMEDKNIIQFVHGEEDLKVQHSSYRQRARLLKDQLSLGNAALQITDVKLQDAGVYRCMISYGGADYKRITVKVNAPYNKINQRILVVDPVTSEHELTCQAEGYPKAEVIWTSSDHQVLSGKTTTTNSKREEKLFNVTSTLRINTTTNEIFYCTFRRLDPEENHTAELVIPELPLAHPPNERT

SMILES | IC50
C=C(CC[C@@H]1NC(=O)[C@H](Cc2c[nH]c3ccccc23)NC(=O)[C@@H]2C[C@@H](O)CN2C(=O)[C@H](CC(C)C)NC(=O)[C@H](CNC(=O)CC[C@@H](C)[C@H]2CC[C@H]3[C@@H]4[C@H](O)C[C@@H]5C[C@H](O)CC[C@]5(C)[C@H]4C[C@H](O)[C@]23C)NC(=O)[C@@H]2CCCN2C(=O)[C@H](CC(N)=O)NC(=O)[C@H](C)N(C)C(=O)[C@H](Cc2ccc(O)cc2)NC(=O)CSC[C@@H](C(=O)NCC(=O)N[C@@H](Cc2cn(CCOCCOCCOCCOCCOCCOCCOCCOCCOCCOCCOCCNC(=O)CC[C@H](NC(=O)CCCCCCCCCCCCCCCCC(=O)O)C(=O)O)nn2)C(=O)O)NC(=O)[C@H](CC(C)C)NC(=O)[C@H](CCCC)N(C)C(=O)[C@H](CCCC)N(C)C(=O)[C@H](Cc2cn(CC(=O)O)c3ccccc23)NC1=O)CC[C@@H](C)[C@H]1CC[C@H]2[C@@H]3[C@H](O)C[C@@H]4C[C@H](O)CC[C@]4(C)[C@H]3C[C@H](O)[C@]12C [Example 1004] | 200 nM
CCCC[C@H]1C(=O)N(C)[C@@H](CCCC)C(=O)N[C@@H](CC(C)C)C(=O)N[C@H](C(=O)NCC(=O)N[C@@H](Cc2cn(CCOCCOCCOCCOCCOCCOCCOCCOCCOCCOCCOCCNC(=O)CC[C@H](NC(=O)CCCCCCCCCCCCCCCCC(=O)O)C(=O)O)nn2)C(=O)O)CSCC(=O)N[C@@H](Cc2ccc(O)cc2)C(=O)N(C)[C@@H](C)C(=O)N[C@@H](CC(N)=O)C(=O)N2CCC[C@H]2C(=O)N[C@@H](CNC(=O)O[C@H]2CC[C@@]3(C)C(CC[C@H]4[C@@H]5CC[C@H]([C@H](C)CCCC(C)C)[C@@]5(C)CC[C@@H]43)C2)C(=O)N[C@@H](CC(C)C)C(=O)N2C[C@H](O)C[C@H]2C(=O)N[C@@H](Cc2c[nH]c3ccccc23)C(=O)N[C@@H](CC)C(=O)N[C@@H](CC2=CC(CC(=O)O)c3ccccc32)C(=O)N1C (some centres unmarked) [Example 1027] | 110 nM
CCCC[C@H]1C(=O)N(C)[C@@H](CCCC)C(=O)N[C@@H](CC(C)C)C(=O)N[C@H](C(=O)NCC(=O)N[C@@H](Cc2cn(CCOCCOCCOCCOCCOCCOCCOCCOCCOCCOCCOCCNC(=O)CC[C@H](NC(=O)CCCCCCCCCCCCCCCCC(=O)O)C(=O)OC)nn2)C(=O)OC)CSCC(=O)N[C@@H](Cc2ccc(O)cc2)C(=O)N(C)[C@@H](C)C(=O)N[C@@H](CC(N)=O)C(=O)N2CCC[C@H]2C(=O)N[C@@H](CN)C(=O)N[C@@H](CC(C)C)C(=O)N2C[C@H](O)C[C@H]2C(=O)N[C@@H](Cc2c[nH]c3ccccc23)C(=O)N[C@@H](CCN)C(=O)N[C@@H](Cc2cn(CC(=O)OC)c3ccccc23)C(=O)N1C [Example 3004] | 21 nM
CCCC[C@H]1C(=O)N(C)[C@@H](CCCC)C(=O)N[C@@H](CC(C)C)C(=N)N[C@H](C(=O)NCC(=N)N[C@@H](Cc2cn(CCOCCOCCOCCOCCOCCOCCOCCOCCOCCOCCOCCNC(=O)CC[C@H](NC(=O)CCCCCCCCCCCCCCCCC(=O)OC)C(=O)OC)nn2)C(=O)OC)CSCC(=O)N[C@@H](Cc2ccc(O)cc2)C(=O)N(C)[C@@H](C)C(=O)N[C@@H](CC(N)=O)C(=O)N2CCC[C@H]2C(=O)N[C@@H](CN)C(=O)N[C@@H](CC(C)C)C(=O)N2C[C@H](O)C[C@H]2C(=O)N[C@@H](Cc2c[nH]c3ccccc23)C(=O)N[C@@H](CCN)C(=O)N[C@@H](CC2=CC(CC(=O)O)c3ccccc32)C(=O)N1C (some centres unmarked) [Example 1012] (Y[NMeA]NP[Dap]L[Hyp]W[Dab][Ala(1-CH2COOH-inden-3-yl)][NMeNle][NMeNle]; linker N-C via X2) | 11 nM
CCCC[C@H]1C(=O)N(C)[C@@H](CCCC)C(=O)N[C@@H](CC(C)C)C(=O)N[C@H](C(=O)NCC(=O)N[C@@H](Cc2cn(CCOCCOCCOCCOCCOCCOCCOCCOCCOCCOCCOCCNC(=O)CC[C@H](NC(=O)CCCCCCCCCCCCCCCCC(=O)OC)C(=O)OC)nn2)C(=O)O)CSCC(=O)N[C@@H](Cc2ccc(O)cc2)C(=O)N(C)[C@@H](C)C(=O)N[C@@H](CC(N)=O)C(=O)N2CCC[C@H]2C(=O)N[C@@H](CNC(=O)OCc2oc(=O)oc2C)C(=O)N[C@@H](CC(C)C)C(=O)N2C[C@H](O)C[C@H]2C(=O)N[C@@H](Cc2c[nH]c3ccccc23)C(=O)N[C@@H](CCN)C(=O)N[C@@H](Cc2cn(CC(=O)O)c3ccccc23)C(=O)N1C [Example 7004] | 6.9 nM
CCCC[C@H]1C(=O)N(C)[C@@H](CCCC)C(=O)N[C@@H](CC(C)C)C(=O)N[C@H](C(=O)NCC(=O)N[C@@H](Cc2cn(CCOCCOCCOCCOCCOCCOCCOCCOCCOCCOCCOCCNC(=O)CC[C@H](NC(=O)CCCCCCCCCCCCCCCCC(=O)O)C(=O)O)nn2)C(=O)O)CSCC(=O)N[C@@H](Cc2ccc(O)cc2)C(=O)N(C)[C@@H](C)C(=O)N[C@@H](CC(N)=O)C(=O)N2CCC[C@H]2C(=O)N[C@@H](CNC(=O)OCC)C(=O)N[C@@H](CC(C)C)C(=O)N2C[C@H](O)C[C@H]2C(=O)N[C@@H](Cc2c[nH]c3ccccc23)C(=O)N[C@@H](CCN)C(=O)N[C@@H](CC2=CC(CC(=O)O)c3ccccc32)C(=O)N1C (some centres unmarked) [Example 1009] | 12 nM
CCCC[C@H]1C(=O)N(C)[C@@H](CCCC)C(=O)N[C@@H](CC(C)C)C(=O)N[C@H](C(=O)NCC(=O)N[C@@H](Cc2cn(CCOCCOCCOCCOCCOCCOCCOCCOCCOCCOCCOCCNC(=O)CC[C@H](NC(=O)CCCCCCCCCCCCCCCCC(=O)O)C(=O)OC)nn2)C(=O)O)CSCC(=O)N[C@@H](Cc2ccc(O)cc2)C(=O)N(C)[C@@H](C)C(=O)N[C@@H](CC(N)=O)C(=O)N2CCC[C@H]2C(=O)N[C@@H](CN)C(=O)N[C@@H](CC(C)C)C(=O)N2C[C@H](O)C[C@H]2C(=O)N[C@@H](Cc2c[nH]c3ccccc23)C(=O)N[C@@H](CCN)C(=O)N[C@@H](Cc2cn(CC(=O)OC)c3ccccc23)C(=O)N1C [Example 3003] | 9.3 nM
CCCC[C@H]1C(=O)N(C)[C@@H](CCCC)C(=O)N[C@@H](CC(C)C)C(=O)N[C@H](C(=O)NCC(=O)N[C@@H](Cc2cn(CCOCCOCCOCCOCCOCCOCCOCCOCCOCCOCCOCCNC(=O)CC[C@H](NC(=O)CCCCCCCCCCCCCCCCC(=O)O)C(=O)O)nn2)C(=O)O)CSCC(=O)N[C@@H](Cc2ccc(O)cc2)C(=O)N(C)[C@@H](C)C(=O)N[C@@H](CC(N)=O)C(=O)N2CCC[C@H]2C(=O)N[C@@H](CNC(=O)OCc2oc(=O)oc2C)C(=O)N[C@@H](CC(C)C)C(=O)N2C[C@H](O)C[C@H]2C(=O)N[C@@H](Cc2c[nH]c3ccccc23)C(=O)N[C@@H](CCNC(=O)OC)C(=O)N[C@@H](Cc2cn(CC(=O)O)c3ccccc23)C(=O)N1C [Example 7006] | 43 nM
CCCC[C@H]1C(=O)N(C)[C@@H](CCCC)C(=O)N[C@@H](CC(C)C)C(=O)N[C@H](C(=O)NCC(=O)N[C@@H](Cc2cn(CCOCCOCCOCCOCCOCCOCCOCCOCCOCCOCCOCCNC(=O)CC[C@H](NC(=O)CCCCCCCCCCCCCCCCC(=O)O)C(=O)O)nn2)C(=O)O)CSCC(=O)N[C@@H](Cc2ccc(O)cc2)C(=O)N(C)[C@@H](C)C(=O)N[C@@H](CC(N)=O)C(=O)N2CCC[C@H]2C(=O)N[C@@H](CNC(=O)OCC)C(=O)N[C@@H](CC(C)C)C(=O)N2C[C@H](O)C[C@H]2C(=O)N[C@@H](Cc2c[nH]c3ccccc23)C(=O)N[C@@H](CCNC(=O)OC)C(=O)N[C@@H](Cc2cn(CC(=O)O)c3ccccc23)C(=O)N1C [Example 7013] | 49 nM
C#CCOC(=O)NC[C@@H]1NC(=O)[C@@H]2CCCN2C(=O)[C@H](CC(N)=O)NC(=O)[C@H](C)N(C)C(=O)[C@H](Cc2ccc(O)cc2)NC(=O)CSC[C@@H](C(=O)NCC(=O)N[C@@H](Cc2cn(CCOCCOCCOCCOCCOCCOCCOCCOCCOCCOCCOCCNC(=O)CC[C@H](NC(=O)CCCCCCCCCCCCCCCCC(=O)O)C(=O)O)nn2)C(=O)O)NC(=O)[C@H](CC(C)C)NC(=O)[C@H](CCCC)N(C)C(=O)[C@H](CCCC)N(C)C(=O)[C@H](CC2=CC(CC(=O)O)c3ccccc32)NC(=O)[C@H](CCN)NC(=O)[C@H](Cc2c[nH]c3ccccc23)NC(=O)[C@@H]2C[C@@H](O)CN2C(=O)[C@H](CC(C)C)NC1=O (some centres unmarked) [Example 1010] | 10 nM
CCCC[C@H]1C(=O)N(C)[C@@H](CCCC)C(=O)N[C@@H](CC(C)C)C(=O)N[C@H](C(=O)NCC(=O)N[C@@H](Cc2cn(CCOCCOCCOCCOCCOCCOCCOCCOCCOCCOCCOCCNC(=O)CC[C@H](NC(=O)CCCCCCCCCCCCCCCCC(=O)O)C(=O)O)nn2)C(=O)O)CSCC(=O)N[C@@H](Cc2ccc(O)cc2)C(=O)N(C)[C@@H](C)C(=O)N[C@@H](CC(N)=O)C(=O)N2CCC[C@H]2C(=O)N[C@@H](CNC(=O)OC)C(=O)N[C@@H](CC(C)C)C(=O)N2C[C@H](O)C[C@H]2C(=O)N[C@@H](Cc2c[nH]c3ccccc23)C(=O)N[C@@H](CCNC(=O)OC)C(=O)N[C@@H](CC2=CC(CC(=O)O)c3ccccc32)C(=O)N1C (some centres unmarked) [Example 1019] | 6.3 nM

From US20240261367A1, “CYCLIC PEPTIDE IMMUNOMODULATORS” (priority 2021, published 2024)
